Data published in PubChem BioAssay (NCI).
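Results reflect a 48-hour exposure of cells in 96-well plates to compound at five concentrations. GI50 marks 50% less growth. TGI denotes the concentration required for complete inhibition of growth.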

Experiments:
Experiment in all cases: growth of human tumour cells (NCI), 48 h
[1] = system: CCRF-CEM leukemia
[2] = system: NCI-H23 lung
[3] = system: SK-MEL-28 melanoma
[4] = system: A549 NSCLC
[5] = system: MDA-MB-468 breast
[6] = system: COLO 205 colon
[7] = system: MDA-MB-435
[8] = system: HS 578T breast
[9] = system: NCI-H522 lung
[10] = system: HOP-92 NSCLC
[11] = system: MOLT-4 leukemia
[12] = system: NCI-H226 lung
[13] = system: PC-3 prostate
[14] = system: SK-MEL-5 melanoma
[15] = system: MDA-MB-231 breast
[16] = system: HT29 colon
[17] = system: MALME-3M melanoma
[18] = system: SNB-75 CNS
[19] = system: KM12 colon
[20] = system: HCT-116 colon
[21] = system: M14 melanoma
[22] = system: EKVX NSCLC
[23] = system: HL-60(TB) leukemia
[24] = system: UACC-62 melanoma
[25] = system: BT-549 breast
[26] = system: HCC-2998 colon
[27] = system: SR leukemia
[28] = system: SNB-19 CNS
[29] = system: SN12C renal
[30] = system: SK-MEL-2 melanoma
[31] = system: OVCAR-8 ovarian
[32] = system: HOP-62 NSCLC
[33] = system: RPMI-8226 leukemia
[34] = system: NCI-H460 lung
[35] = system: CAKI-1 renal
[36] = system: NCI/ADR-RES ovarian
[37] = system: DU-145 prostate
[38] = system: SW-620 colon
[39] = system: MCF7 breast
[40] = system: LOX IMVI melanoma
[41] = system: UACC-257 melanoma
[42] = system: ACHN renal
[43] = system: OVCAR-3 ovarian
[44] = system: OVCAR-5 ovarian
[45] = system: RXF 393 renal
[46] = system: UO-31 renal
[47] = system: A498 renal
[48] = system: OVCAR-4 ovarian
[49] = system: TK-10 renal
[50] = system: 786-0 renal
[51] = system: T-47D breast
[52] = system: SK-OV-3 ovarian
[53] = system: SF-539 CNS
[54] = system: K-562 leukemia
[55] = system: U251 CNS
[56] = system: IGROV1 ovarian
[57] = system: HCT-15 colon
[58] = system: SF-268 CNS
[59] = system: SF-295 CNS

`CC1[C@H]2[C@H](C[C@H]3[C@@H]4CC=C5c6sc(Nc7ccccc7F)nc6CC[C@]5(C)[C@H]4CC[C@@]32C)O[C@]12CC[C@@H](C)CO2` (stereo partly drawn) was tested, and the GI50 [1] was 5.1 µM, the TGI [1] was > 100 µM and the GI50 [2] was 59.5 µM. For the same molecule, the TGI [2] was > 100 µM, the GI50 [3] was > 100 µM and the TGI [3] was > 100 µM. For the same molecule, the GI50 [4] was > 100 µM, the TGI [4] was > 100 µM and the GI50 [5] was 25.1 µM. The TGI [5] was > 100 µM, the GI50 [6] was 62.1 µM and the TGI [6] was > 100 µM. For the same molecule, the GI50 [7] was 95.4 µM, the TGI [7] was > 100 µM and the GI50 [8] was > 100 µM. For the same molecule, the TGI [8] was > 100 µM, the GI50 [9] was 34.7 µM and the TGI [9] was > 100 µM. The GI50 [10] was 42.3 µM, the TGI [10] was > 100 µM and the GI50 [11] was 25.7 µM. For the same molecule, the TGI [11] was > 100 µM, the GI50 [12] was > 100 µM and the TGI [12] was > 100 µM. The GI50 [13] was 26.3 µM, the TGI [13] was > 100 µM and the GI50 [14] was 31.7 µM. For the same molecule, the TGI [14] was > 100 µM, the GI50 [15] was > 100 µM and the TGI [15] was > 100 µM. The GI50 [16] was 60.3 µM, the TGI [16] was > 100 µM and the GI50 [17] was > 100 µM. The TGI [17] was > 100 µM, the GI50 [18] was 31.2 µM and the TGI [18] was > 100 µM. The GI50 [19] was > 100 µM, the TGI [19] was > 100 µM and the GI50 [20] was 37.3 µM. For the same molecule, the TGI [20] was > 100 µM, the GI50 [21] was 86.7 µM and the TGI [21] was > 100 µM. For the same molecule, the GI50 [22] was > 100 µM, the TGI [22] was > 100 µM and the GI50 [23] was 30.1 µM. For the same molecule, the TGI [23] was > 100 µM, the GI50 [24] was 43.1 µM and the TGI [24] was > 100 µM. The GI50 [25] was 26.4 µM, the TGI [25] was > 100 µM and the GI50 [26] was > 100 µM. For the same molecule, the TGI [26] was > 100 µM, the GI50 [27] was 24.8 µM and the TGI [27] was > 100 µM. The GI50 [28] was > 100 µM, the TGI [28] was > 100 µM and the GI50 [29] was > 100 µM. For the same molecule, the TGI [29] was > 100 µM, the GI50 [30] was > 100 µM and the TGI [30] was > 100 µM. For the same molecule, the GI50 [31] was > 100 µM, the TGI [31] was > 100 µM and the GI50 [32] was > 100 µM. For the same molecule, the TGI [32] was > 100 µM, the GI50 [33] was 35.5 µM and the TGI [33] was > 100 µM. For the same molecule, the GI50 [34] was 91.1 µM, the TGI [34] was > 100 µM and the GI50 [35] was > 100 µM. The TGI [35] was > 100 µM, the GI50 [36] was > 100 µM and the TGI [36] was > 100 µM. The GI50 [37] was > 100 µM, the TGI [37] was > 100 µM and the GI50 [38] was 76.1 µM. For the same molecule, the TGI [38] was > 100 µM, the GI50 [39] was 38.2 µM and the TGI [39] was > 100 µM. The GI50 [40] was 67.1 µM, the TGI [40] was > 100 µM and the GI50 [41] was 54.1 µM. The TGI [41] was > 100 µM, the GI50 [42] was > 100 µM and the TGI [42] was > 100 µM. The GI50 [43] was > 100 µM, the TGI [43] was > 100 µM and the GI50 [44] was > 100 µM. The TGI [44] was > 100 µM, the GI50 [45] was 9.09 µM and the TGI [45] was 66.7 µM. The GI50 [46] was > 100 µM, the TGI [46] was > 100 µM and the GI50 [47] was > 100 µM. For the same molecule, the TGI [47] was > 100 µM, the GI50 [48] was > 100 µM and the TGI [48] was > 100 µM. The GI50 [49] was > 100 µM, the TGI [49] was > 100 µM and the GI50 [50] was 85.4 µM. The TGI [50] was > 100 µM, the GI50 [51] was 25 µM and the TGI [51] was > 100 µM. For the same molecule, the GI50 [52] was > 100 µM, the TGI [52] was > 100 µM and the GI50 [53] was 80.9 µM. For the same molecule, the TGI [53] was > 100 µM, the GI50 [54] was 26.6 µM and the TGI [54] was > 100 µM. For the same molecule, the GI50 [55] was > 100 µM, the TGI [55] was > 100 µM and the GI50 [56] was > 100 µM. For the same molecule, the TGI [56] was > 100 µM, the GI50 [57] was 56.1 µM and the TGI [57] was > 100 µM. For the same molecule, the GI50 [58] was > 100 µM, the TGI [58] was > 100 µM and the GI50 [59] was 53.3 µM. The TGI [59] was > 100 µM.
